Target: T1, TRPC5 channels (Homo sapiens, UniProt Q9UL62)
T1 construct: expressed in transfected cells; host or cells: HEK293
T1 sequence (Q9UL62 1-973): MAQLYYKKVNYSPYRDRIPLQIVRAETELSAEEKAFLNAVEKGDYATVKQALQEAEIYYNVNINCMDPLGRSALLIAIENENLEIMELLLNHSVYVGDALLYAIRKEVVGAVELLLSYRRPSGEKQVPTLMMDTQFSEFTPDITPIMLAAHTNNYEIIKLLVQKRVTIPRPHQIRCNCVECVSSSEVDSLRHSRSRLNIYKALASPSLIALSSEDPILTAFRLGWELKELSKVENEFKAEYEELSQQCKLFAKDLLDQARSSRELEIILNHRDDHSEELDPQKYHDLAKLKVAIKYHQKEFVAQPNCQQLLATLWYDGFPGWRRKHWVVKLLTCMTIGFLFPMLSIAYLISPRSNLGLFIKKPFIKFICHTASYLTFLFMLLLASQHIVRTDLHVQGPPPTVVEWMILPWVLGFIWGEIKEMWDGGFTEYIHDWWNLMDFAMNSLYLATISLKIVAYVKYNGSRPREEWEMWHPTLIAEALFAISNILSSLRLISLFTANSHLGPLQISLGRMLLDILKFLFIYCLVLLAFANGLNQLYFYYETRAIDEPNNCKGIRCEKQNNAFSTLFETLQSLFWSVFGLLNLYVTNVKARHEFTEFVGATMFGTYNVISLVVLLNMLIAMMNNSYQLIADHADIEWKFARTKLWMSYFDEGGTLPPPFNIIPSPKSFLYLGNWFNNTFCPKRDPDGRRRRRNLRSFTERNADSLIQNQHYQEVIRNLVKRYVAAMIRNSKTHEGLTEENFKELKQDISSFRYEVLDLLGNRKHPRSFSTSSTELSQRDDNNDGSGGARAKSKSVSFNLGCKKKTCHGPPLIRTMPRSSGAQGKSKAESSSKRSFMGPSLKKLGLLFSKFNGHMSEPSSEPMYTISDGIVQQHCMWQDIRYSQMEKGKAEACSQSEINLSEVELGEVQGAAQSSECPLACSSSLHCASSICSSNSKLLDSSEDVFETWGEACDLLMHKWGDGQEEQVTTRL
Assay: TRP Family FLIPR Assay, TRPC5
Assay type: cell-based
Settings: HEK293 cells
Protocol: The compound of Example 5 was tested for selectivity against a panel of Human TRP family ion channels in a TRP Family FLIPR Assay as described below. • 1. TRPC3 channels (human TRPC3 variant 1 gene, expressed in HEK293 cells). • 2. TRPC4 channels (human TRPC4 gene, expressed in HEK293 cells). • 3. TRPC5 channels (human TRPC5 gene, expressed in HEK293 cells). • 4. TRPC6 channels (human TRPC6 gene, expressed in HEK293 cells). • 5. TRPM2 channels (human TRPM2 gene, transiently expressed in HEK293 cells). • 6. TRPM3 channels (human TRPM3 gene, transiently expressed in HEK293 cells). • 7. TRPM4 channels (human TRPM4 gene, expressed in CHO cells). • 8. […]
Data acquisition was performed via the FLIPR Control software supplied with the FLIPR System (MDS-AT) and data was analyzed using Microsoft Excel (Microsoft Corp., Redmond, WA) or GraphPad Prism. […]
[formula] where Base is the response at low concentrations of test article, Max is the maximum response at high concentrations, xhalf the EC50, or IC50, the concentration of test article producing either half-maximal activation or inhibition, and rate is the Hill coefficient. […] No assumptions about the fit parameters was made; the fit parameters were determined by the algorithm.
The effect of each test article was evaluated at eight (8) concentrations: 0.003, 0.01, 0.03, 0.1, 0.3, 1, 3 and 10 μM, n≤4 wells/concentration). […]

`CC(C)(O)c1cnc(N2C[C@@]3(CC[C@@H](F)[C@](C)(Cn4cnc5ccc(C#N)cc54)C3)OC2=O)cn1` (single isomer, unassigned) [Example 5] showed an EC50 (agonist mode, vs EMAX of (−)-Englerin A 30 μM, read-out: EC50 hTRPC5) of over 10 µM and an IC50 (antagonist mode, activated with 0.5 μM (−)-Englerin A, 0.003-10 μM, read-out: IC50 hTRPC5) of over 10 µM.

Reference: patent US12391683B2, “Therapeutic compounds and methods” (Actio Biosciences, Inc., priority 2022, dated 2025)
